In publication PMC4059401 (Xenobiotica; the fate of foreign compounds in biological …, 2013):

Experiments:
[1] = target: CYP1A2 (Homo sapiens, UniProt P05177); assay: metabolite formation by recombinant CYP Supersomes, LC/MS; type: cell-based
[2] = target: CYP2D6 (Homo sapiens, UniProt P10635); assay: UV-visible spectral binding titration, purified enzyme
[3] = target: CYP3A4 (Homo sapiens, UniProt P08684); assay: metabolite formation by recombinant CYP Supersomes, LC/MS; type: cell-based
Sequence of CYP3A4 (P16435 2-677): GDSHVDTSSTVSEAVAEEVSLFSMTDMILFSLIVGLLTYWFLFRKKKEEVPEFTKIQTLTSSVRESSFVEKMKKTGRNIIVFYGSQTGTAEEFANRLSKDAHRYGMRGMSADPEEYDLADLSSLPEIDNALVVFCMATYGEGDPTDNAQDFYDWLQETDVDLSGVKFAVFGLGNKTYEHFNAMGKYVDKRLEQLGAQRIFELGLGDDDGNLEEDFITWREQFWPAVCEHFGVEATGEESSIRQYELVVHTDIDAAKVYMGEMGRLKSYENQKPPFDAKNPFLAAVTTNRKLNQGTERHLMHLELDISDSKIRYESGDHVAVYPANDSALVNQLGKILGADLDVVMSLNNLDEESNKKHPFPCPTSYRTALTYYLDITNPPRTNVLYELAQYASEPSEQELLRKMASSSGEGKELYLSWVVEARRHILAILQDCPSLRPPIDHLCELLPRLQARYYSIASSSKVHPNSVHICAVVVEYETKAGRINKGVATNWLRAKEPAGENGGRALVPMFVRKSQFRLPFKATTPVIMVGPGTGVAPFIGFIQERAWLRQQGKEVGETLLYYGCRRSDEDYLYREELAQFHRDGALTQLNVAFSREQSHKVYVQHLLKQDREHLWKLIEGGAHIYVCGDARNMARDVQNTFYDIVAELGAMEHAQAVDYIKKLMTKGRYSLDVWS
Sequence of CYP3A4 (P08684 2-503): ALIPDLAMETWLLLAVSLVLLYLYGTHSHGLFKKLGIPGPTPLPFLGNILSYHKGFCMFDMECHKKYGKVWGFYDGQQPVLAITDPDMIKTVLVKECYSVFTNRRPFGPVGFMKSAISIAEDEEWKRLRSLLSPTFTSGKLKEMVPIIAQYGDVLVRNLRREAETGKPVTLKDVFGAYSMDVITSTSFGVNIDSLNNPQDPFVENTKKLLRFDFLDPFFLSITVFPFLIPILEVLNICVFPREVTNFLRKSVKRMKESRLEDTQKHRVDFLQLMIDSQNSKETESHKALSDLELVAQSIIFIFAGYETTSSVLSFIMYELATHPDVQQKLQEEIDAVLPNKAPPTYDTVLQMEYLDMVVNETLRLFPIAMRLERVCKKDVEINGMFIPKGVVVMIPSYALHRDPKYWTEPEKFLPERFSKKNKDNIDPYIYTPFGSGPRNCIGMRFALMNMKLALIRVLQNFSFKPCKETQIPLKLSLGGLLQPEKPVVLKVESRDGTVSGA

Sequence of CYP1A2 (P16435 2-677): as the sequence (P16435 2-677) above
Sequence of CYP1A2 (P05177 2-516): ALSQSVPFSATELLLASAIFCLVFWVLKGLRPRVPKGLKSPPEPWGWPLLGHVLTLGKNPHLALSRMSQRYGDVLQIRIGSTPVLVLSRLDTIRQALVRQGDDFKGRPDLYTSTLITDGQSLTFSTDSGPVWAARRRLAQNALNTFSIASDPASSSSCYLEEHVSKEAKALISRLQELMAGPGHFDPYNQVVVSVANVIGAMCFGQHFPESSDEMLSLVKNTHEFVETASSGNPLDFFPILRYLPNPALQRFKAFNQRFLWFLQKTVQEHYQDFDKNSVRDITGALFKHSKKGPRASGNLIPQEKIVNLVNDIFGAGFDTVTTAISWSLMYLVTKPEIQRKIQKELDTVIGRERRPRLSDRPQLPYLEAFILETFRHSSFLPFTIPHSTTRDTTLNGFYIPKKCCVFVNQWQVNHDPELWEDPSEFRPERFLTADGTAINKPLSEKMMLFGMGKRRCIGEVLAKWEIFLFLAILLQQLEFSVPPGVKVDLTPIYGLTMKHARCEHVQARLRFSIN
Sequence of CYP2D6 (P10635 whole entry): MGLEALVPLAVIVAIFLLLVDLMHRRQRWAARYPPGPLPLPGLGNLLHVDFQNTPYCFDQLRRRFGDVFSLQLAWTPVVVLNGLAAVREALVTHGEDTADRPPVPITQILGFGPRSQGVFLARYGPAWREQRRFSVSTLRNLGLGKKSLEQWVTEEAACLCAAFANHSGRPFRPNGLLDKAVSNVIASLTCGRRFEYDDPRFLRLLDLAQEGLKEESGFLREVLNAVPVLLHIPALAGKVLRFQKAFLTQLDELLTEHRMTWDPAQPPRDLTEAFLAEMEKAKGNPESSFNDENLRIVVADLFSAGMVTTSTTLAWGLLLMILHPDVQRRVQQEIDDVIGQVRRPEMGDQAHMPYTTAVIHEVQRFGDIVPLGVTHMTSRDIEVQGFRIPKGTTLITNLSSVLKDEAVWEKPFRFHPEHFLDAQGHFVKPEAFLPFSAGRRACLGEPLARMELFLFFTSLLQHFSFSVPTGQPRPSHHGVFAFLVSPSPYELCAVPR

CCN(CC)CCNC(=O)c1cc(Cl)c(N)cc1OC [Metoclopramide, 4-amino-5-chloro-N-(2-(diethylamino)ethyl)-2-methoxybenzamide]
metabolite formation by recombinant CYP Supersomes, LC/MS [1]: CYPs 1A2, 2C9, 2C19, and 3A4 also metabolized metoclopramide. | Kd [2]: 9.56 ± 1.09 µM | metabolite formation by recombinant CYP Supersomes, LC/MS [3]: All three monooxygenation products (M4a, M4b, M4c) were formed by CYP3A4 and CYP2D6
